According to patent US10556865B2, “Synergistic herbicidal composition containing certain pyridine or pyrimidine carboxylic acids and certain cereal and rice herbicides” (Dow AgroSciences, LLC, priority 2007, dated 2020):

Assays:
Format in all cases: in vivo
[1] = test system: Fimbristylis miliacea (L.) VAHL (FIMMI); assay: Herbicidal mixtures for weed control in transplanted paddy rice (in-water application, visual % injury)
Outline: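 Weeds sown in flooded puddled mineral soil (pH ~7.3–7.8, ~1.0% organic matter) and treated at second–third true leaf stage by injecting acetone/2.5% Agri-dex stock into the paddy water. A, C and D dosed as acid equivalent, partner herbicides as active ingredient. Injury scored visually after 3 weeks in greenhouse, 0–100% versus untreated plants.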

[2] = test system: annual ryegrass (Lolium multiflorum L; LOLMG); assay: Postemergence herbicidal activity of mixtures in cereal crops (greenhouse, visual injury)
Outline: (§1)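 Plants at second-third true leaf stage sprayed postemergence at 187 L/ha with compound and second cereal herbicide alone and combined; solvent blank controls. Visual injury scored 0-100% versus controls after 20-22 days; expected mixture effects by Colby's equation.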

[3] = test system: littleseed Canarygrass (Phalaris minor L; PHAMI); assay: as above; settings: for PHAMI: Table 13
Outline: as §1

Compound: O=C(O)c1c(Cl)ccc2cc(Cl)cnc12 [Quinclorac]
- % Injury FIMMI Ob ([1]; Quinclorac 140 g/ha alone (Compound A Methyl half)): 0%
- % Injury FIMMI Ob ([1]; Quinclorac 140 g/ha alone (Compound A TEA half)): 0%

Compound: COc1c(Cl)ccc(-c2cc(N)c(Cl)c(C(=O)O)n2)c1F [Compound A TEA, 4-amino-3-chloro-6-(4-chloro-2-fluoro-3-methoxyphenyl)pyridine-2-carboxylic acid]
- % Injury Ob ([1]; 17.5 g/ha alone): 30%
- % Injury Ob ([1]; 35 g/ha alone): 0%
- % Injury Ob ([1]; 70 g/ha alone): 0%
- % Injury FIMMI Ob ([1]; Compound A TEA 17.5 g/ha alone): 30%
- LOLMG Ob ([2]; 35 g/ha, Table 13): 0%
- LOLMG Ob ([2]; 70 g/ha, Table 13): 0%
- LOLMG Ob ([2]; 140 g/ha, Table 13): 0%
- PHAMI ([3]; 35 g/ha): 0%
- PHAMI Ob ([3]; 35 g/ha, Table 16): 0%
- PHAMI Ob ([3]; 35 g/ha, Table 18): 0%
- PHAMI ([3]; 70 g/ha): 0%
- PHAMI Ob ([3]; 70 g/ha, Table 16): 0%
- PHAMI Ob ([3]; 70 g/ha, Table 18): 0%
- PHAMI ([3]; 140 g/ha): 0%
- PHAMI Ob ([3]; 140 g/ha, Table 16): 0%
- PHAMI Ob ([3]; 140 g/ha, Table 18): 0%

Compound: COC(=O)c1nc(-c2ccc(Cl)c(OC)c2F)nc(N)c1Cl [Compound B Methyl, 6-amino-5-chloro-2-(4-chloro-2-fluoro-3-methoxyphenyl)pyrimidine-4-carboxylic acid methyl ester]
- LOLMG Ob ([2]; 8.75 g/ha): 0%
- LOLMG Ob ([2]; 8.75 g/ha, Table 22): 0%
- LOLMG Ob ([2]; 17.5 g/ha): 0%
- LOLMG Ob ([2]; 17.5 g/ha, Table 22): 0%
- LOLMG Ob ([2]; 35 g/ha): 0%
- LOLMG Ob ([2]; 35 g/ha, Table 22): 0%
- LOLMG Ob ([2]; 70 g/ha): 0%
- LOLMG Ob ([2]; 70 g/ha, Table 22): 0%
- PHAMI Ob ([3]; 8.75 g/ha): 0%
- PHAMI Ob ([3]; 8.75 g/ha, Table 20): 0%
- PHAMI Ob ([3]; 8.75 g/ha, Table 22): 0%
- PHAMI Ob ([3]; 17.5 g/ha): 0%
- PHAMI Ob ([3]; 17.5 g/ha, Table 20): 0%
- PHAMI Ob ([3]; 17.5 g/ha, Table 22): 0%
- PHAMI Ob ([3]; 35 g/ha): 0%
- PHAMI Ob ([3]; 35 g/ha, Table 20): 0%
- PHAMI Ob ([3]; 35 g/ha, Table 22): 0%
- PHAMI Ob ([3]; 70 g/ha): 0%
- PHAMI Ob ([3]; 70 g/ha, Table 20): 0%
- PHAMI Ob ([3]; 70 g/ha, Table 22): 0%

Compound: COC(=O)c1nc(-c2ccc(Cl)c(OC)c2F)cc(N)c1Cl [Compound A Methyl, 4-amino-3-chloro-6-(4-chloro-2-fluoro-3-methoxyphenyl)pyridine-2-carboxylic acid methyl ester]
- % Injury Ob ([1]; 17.5 g/ha alone): 20%
- % Injury FIMMI Ob ([1]; Compound A Methyl 17.5 g/ha alone): 20%
- LOLMG Ob ([2]; 17.5 g/ha, Table 1): 20%
- LOLMG Ob ([2]; 17.5 g/ha, Table 2): 20%
- LOLMG Ob ([2]; 35 g/ha, Table 1): 40%
- LOLMG Ob ([2]; 35 g/ha, Table 2): 40%
- LOLMG Ob ([2]; 70 g/ha, Table 1): 0%
- LOLMG Ob ([2]; 70 g/ha, Table 2): 60%
- PHAMI Ob ([3]; 17.5 g/ha, Table 4): 20%
- PHAMI Ob ([3]; 17.5 g/ha, Table 5): 20%
- PHAMI Ob ([3]; 17.5 g/ha, Table 6): 20%
- PHAMI Ob ([3]; 35 g/ha, Table 3): 30%
- PHAMI Ob ([3]; 35 g/ha, Table 4): 30%
- PHAMI Ob ([3]; 35 g/ha, Table 5): 30%
- PHAMI Ob ([3]; 35 g/ha, Table 6): 30%
- PHAMI Ob ([3]; 35 g/ha, Table 11): 3%
- PHAMI Ob ([3]; 70 g/ha, Table 3): 35%
- PHAMI Ob ([3]; 70 g/ha, Table 4): 35%
- PHAMI Ob ([3]; 70 g/ha, Table 5): 35%
- PHAMI Ob ([3]; 70 g/ha, Table 6): 35%
- PHAMI Ob ([3]; 70 g/ha, Table 11): 6%
- PHAMI Ob ([3]; 140 g/ha, Table 11): 17%
